The record followed here is patent US11702422B2, “Imidazopyridazines as modulators of IL-17” (Janssen Pharmaceutica NV, priority 2020, dated 2023).

pIC50: −log10 of the molar value.

Chain of UniProt Q16552 (Q16552 with tags, fused parts or gaps K93Q): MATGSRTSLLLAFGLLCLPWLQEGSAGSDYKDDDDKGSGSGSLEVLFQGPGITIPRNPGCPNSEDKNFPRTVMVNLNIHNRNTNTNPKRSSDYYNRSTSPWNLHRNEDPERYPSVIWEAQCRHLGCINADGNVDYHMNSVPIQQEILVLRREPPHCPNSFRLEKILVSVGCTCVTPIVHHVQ

One assay addresses IL-17A(FLAG-Tagged): IL-17RA(His-Tagged) (Homo sapiens, UniProt Q16552, K93Q). Nature of the assay: IL-17A(FLAG-Tagged): IL-17RA(His-Tagged) Binding Disruption Eu-HTRF Assay. The settings on record: IL-17A/IL-17RA binding disruption, simple average if tested more than once. The source says: IL-17A(FLAG-Tagged): IL-17RA(His-Tagged) Binding Disruption Eu-HTRF Assay
An antibody directed against the FLAG tag of IL-17A (SEQ ID NO:1) is labeled with the HTRF donor chromophore (Europium-cryptate). IL-17A is present as a dimer that is “locked into” this quaternary structure due to the formation of loop-spanning […] disulfide bridges. The construct of IL-17RA used in the assay excludes the […] portion of the receptor and is fused to a C-terminal 10×His tag (SEQ ID NO:2). An antibody directed against the His tag of the IL-17RA chimera is labeled with the HTRF acceptor chromophore (“D2”). The fluorescence-resonance energy transfer (FRET) depends on the vicinity of the donor chromophore to the acceptor, and interruption of the binding between the IL-17A and IL-17RA causes the reduction/loss of FRET. Therefore, this assay allows to evaluate the compound effect on the binding IL-17A and IL-17RA by monitoring the fluorescence intensity of donor vs acceptor. The assay is run as described below.
40 nl of 2-fold serial diluted compound solution for total 22 dilution points is added into each well of a 1536-well, white, low-volume, non-binding plate (Greiner #782904), then 2 μl of FLAG tagged IL-17A at 2× final concentration (2.5 nM) in solution of PBS+0.01% Triton-X100 is added to each well. The assay plate is briefly centrifuged then incubated for 1 h at rt. A mixed solution is prepared containing 2×5 nM 10HIS×IL-17RA, 2×2.5 nM Eu-anti-FLAG (CISBIO), 2×5 nM D2-anti-HIS (CISBIO) in PBS+0.01% Triton-X100+200 mM Potassium Fluoride (Sigma 60238) and 2 μl of mix is added to each well of the assay plate. The plate is briefly centrifuged then incubated for 2 h at rt. The HTRF intensities at the wavelength of donor (620 nm) and acceptor (665 nm) are measured using BMG Pherastar. The ratio between intensities at two wavelengths is calculated and plotted against the compound concentration and the data is fitted to a one-site competition model to yield IC50 of the compound.
Background: TR-FRET usually uses a lanthanide donor and a delayed reading to cut background.
For `Cc1nocc1C(=O)N[C@H](c1cn2ncc(C(NC(=O)CCC(F)(F)F)C(C)C)cc2n1)C1CCC(F)(F)CC1` (mixture of isomers) [Example 134, N—((S)-(4,4-Difluorocyclohexyl)(7-(2-methyl-1-(4,4,4-trifluorobutanamido)propyl)imidazo[1,2-b]pyridazin-2-yl)methyl)-3-methylisoxazole-4-carboxamide], the pIC50 was 6.74.

`O=C(CCC(F)(F)F)N[C@@H](c1cnn2cc([C@@H](NC(=O)C3CC3C(F)(F)F)C3CCC(F)(F)CC3)nc2c1)C1CC1` (mixture of isomers) [Example 43, (Trans-1,2)-N—((S)-(7-((R)-cyclopropyl(4,4,4-trifluorobutanamido)methyl)imidazo[1,2-b]pyridazin-2-yl)(4,4-difluorocyclohexyl)methyl)-2-(trifluoromethyl)cyclopropane-1-carboxamide] had a pIC50 of 6.62.

`Cc1nonc1C(=O)N[C@H](c1cn2ncc([C@H](NC(=O)[C@H]3CNC[C@@H]3C(F)(F)F)C3CC3)cc2n1)C1CCC(F)(F)CC1` (relative stereo) [Example 355, N—((S)-(7-((R)-Cyclopropyl((trans-3R*,4R*)-4-(trifluoromethyl)pyrrolidine-3-carboxamido)methyl)imidazo[1,2-b]pyridazin-2-yl)(4,4-difluorocyclohexyl)methyl)-4-methyl-1,2,5-oxadiazole-3-carboxamide] showed a pIC50 of 4.72.

Consider `O=C(CCC(F)(F)F)NC(c1cnn2cc([C@@H](NC(=O)c3ccccc3)C3CCC(F)(F)CC3)nc2c1)C1CC1` (single isomer, unassigned) [Example 13, N—((S)-(7-((S*)-Cyclopropyl(4,4,4-trifluorobutanamido)methyl)imidazo[1,2-b]pyridazin-2-yl)(4,4-difluorocyclohexyl)methyl)benzamide], for which the pIC50 is 5.12.

For `Cc1nonc1C(=O)N[C@H](c1cn2ncc([C@H](NC(=O)CCCC#N)C3CC3)cc2n1)C1CCC(F)(F)CC1` [Example 351, N—((S)-(7-((R)-(4-Cyanobutanamido)(cyclopropyl)methyl)imidazo[1,2-b]pyridazin-2-yl)(4,4-difluorocyclohexyl)methyl)-4-methyl-1,2,5-oxadiazole-3-carboxamide], the pIC50 was 5.59.

Another assay deals with IL-17A-induced G-CSF production in human normal keratinocyte (NHK). Put plainly: NHK Assay: IL-17A-induced G-CSF production in human normal keratinocytes. In kind it is cell-based. As to conditions: Homo sapiens, Keratinocyte, 24 h, adult normal human keratinocytes, IL-17A 5 ng/mL, simple average if tested more than once. The protocol: IL-17A acts directly on keratinocytes through binding to dimeric receptor IL-17RA/RC and drives the production of a number of inflammatory mediators known to be elevated in psoriasis lesional tissue. IL-17A small molecule inhibitors that block the IL-17A to interact with IL-17R would inhibit the IL-17A signaling in its targeted cells such as keratinocytes. The compound functional activity is evaluated for its impact on IL-17A-induced G-CSF production in human normal keratinocyte (NHK).
Adult normal human keratinocytes are cultured in keratinocyte growth medium (Lonza) in a flask till reaching ˜ 90% confluence, then cells are transferred to a 384-well plate at density of 3000-4000 cell/well. Recombinant human IL-17A (Gibco PHC9174) is pre-incubated with titrated compound or DMSO for 1 h at rt then added to the cell culture plate. The final concentration of IL-17A is 5 ng/mL and DMSO is 0.2%, in the culture containing 5% FBS. Cells are cultured/treated for 24 h at 37° C. Supernatants are collected and G-CSF production is measured through HTRF technology using Human G-CSF Kit (CisBio). G-CSF concentration was extrapolated from the standard curve and IC50 is determined using GraphPad Prism. Cell viability is also evaluated using CellTiter-Glo kit (Promega) and effect of compound on cell viability is compared to DMSO control.
The compound `Cc1nocc1C(=O)N[C@H](c1cn2ncc(C(NC(=O)CCC(F)(F)F)C(C)C)cc2n1)C1CCC(F)(F)CC1` (mixture of isomers) [Example 134, N—((S)-(4,4-Difluorocyclohexyl)(7-(2-methyl-1-(4,4,4-trifluorobutanamido)propyl)imidazo[1,2-b]pyridazin-2-yl)methyl)-3-methylisoxazole-4-carboxamide] gave a pIC50 of 6.96.

Compound `O=C(CCC(F)(F)F)N[C@@H](c1cnn2cc([C@@H](NC(=O)C3CC3C(F)(F)F)C3CCC(F)(F)CC3)nc2c1)C1CC1` (mixture of isomers) [Example 43, (Trans-1,2)-N—((S)-(7-((R)-cyclopropyl(4,4,4-trifluorobutanamido)methyl)imidazo[1,2-b]pyridazin-2-yl)(4,4-difluorocyclohexyl)methyl)-2-(trifluoromethyl)cyclopropane-1-carboxamide] showed a pIC50 of 6.14.

Compound `O=C(CCC(F)(F)F)N[C@@H](c1cnn2cc([C@@H](NC(=O)c3nonc3CN3CC(F)(F)C3)C3CCC(F)(F)CC3)nc2c1)C1CC1` [Example 387, N—((S)-(7-((R)-Cyclopropyl(4,4,4-trifluorobutanamido)methyl)imidazo[1,2-b]pyridazin-2-yl)(4,4-difluorocyclohexyl)methyl)-4-((3,3-difluoroazetidin-1-yl)methyl)-1,2,5-oxadiazole-3-carboxamide] gave a pIC50 of 7.14.

`CC(C)(C)Oc1nonc1C(=O)N[C@H](c1cn2ncc([C@H](NC(=O)CC3CC(F)(F)C3)C3CC3)cc2n1)C1CCC(F)(F)CC1` [Example 392, 4-(tert-Butoxy)-N—((S)-(7-((R)-cyclopropyl(2-(3,3-difluorocyclobutyl)acetamido)methyl)imidazo[1,2-b]pyridazin-2-yl)(4,4-difluorocyclohexyl)methyl)-1,2,5-oxadiazole-3-carboxamide] had a pIC50 of 7.43. This pIC50 is 0.29 log units higher than that of the compound before.

Regarding `CC(C)c1ncsc1C(=O)N[C@H](c1cn2ncc([C@H](NC(=O)CCC(F)(F)F)C3CC3)cc2n1)C1CCC(F)(F)CC1` [Example 464, N—((S)-(7-((R)-Cyclopropyl(4,4,4-trifluorobutanamido)methyl)imidazo[1,2-b]pyridazin-2-yl)(4,4-difluorocyclohexyl)methyl)-4-isopropylthiazole-5-carboxamide], the pIC50 is 6.20.

`CC(C)c1nnsc1C(=O)N[C@H](c1cn2ncc([C@H](NC(=O)CCC(F)(F)F)C3CC3)cc2n1)C1CCC(F)(F)CC1` [Example 481, N—[(S)-[7-[(R)-Cyclopropyl-(4,4,4-trifluorobutanamido)methyl]imidazo[1,2-b]pyridazin-2-yl]-(4,4-difluorocyclohexyl)methyl]-4-isopropyl-thiadiazole-5-carboxamide] gave a pIC50 of 6.33. This pIC50 and that of the compound before are within 0.2 log units of each other.

Still in this assay, the particulars now being: adult normal human keratinocytes, IL-17A 5 ng/mL, 24 h, simple average if tested more than once.
Compound `CC(C)n1nccc1C(=O)N[C@H](c1cn2ncc(C(NC(=O)CC3CC(F)(F)C3)C(F)F)cc2n1)C1CCC(F)(F)CC1` (single isomer, unassigned) [Example 420, N—((S)-(7-((R*)-1-(2-(3,3-Difluorocyclobutyl)acetamido)-2,2-difluoroethyl)imidazo[1,2-b]pyridazin-2-yl)(4,4-difluorocyclohexyl)methyl)-1-isopropyl-1H-pyrazole-5-carboxamide] had a pIC50 of 5.39.

As to `CC(C)n1nccc1C(=O)N[C@H](c1cn2ncc(C(CC3CCC3)NC(=O)CC3CC(F)(F)C3)cc2n1)C1CCC(F)(F)CC1` (single isomer, unassigned) [Example 441, N—((S)-(7-((S*)-2-Cyclobutyl-1-(2-(3,3-difluorocyclobutyl)acetamido)ethyl)imidazo[1,2-b]pyridazin-2-yl)(4,4-difluorocyclohexyl)methyl)-1-isopropyl-1H-pyrazole-5-carboxamide], the pIC50 is 5.96.

Turning to `CC(C)n1nccc1C(=O)N[C@H](c1cn2ncc(C(NC(=O)CC3CC(F)(F)C3)C(C)(C)O)cc2n1)C1CCC(F)(F)CC1` (single isomer, unassigned) [Example 442, N—((S)-(7-((S*)-1-(2-(3,3-Difluorocyclobutyl)acetamido)-2-hydroxy-2-methylpropyl)imidazo[1,2-b]pyridazin-2-yl)(4,4-difluorocyclohexyl)methyl)-1-isopropyl-1H-pyrazole-5-carboxamide], the pIC50 is 6.22.

With `Cc1nonc1C(=O)N[C@H](c1cn2ncc(C(NC(=O)CC3CC(F)(F)C3)C(C)(C)O)cc2n1)C1CCC(F)(F)CC1` (single isomer, unassigned) [Example 443, N—((S)-(7-((S*)-1-(2-(3,3-Difluorocyclobutyl)acetamido)-2-hydroxy-2-methylpropyl)imidazo[1,2-b]pyridazin-2-yl)(4,4-difluorocyclohexyl)methyl)-4-methyl-1,2,5-oxadiazole-3-carboxamide], the pIC50 was 6.28. The pIC50 values of the last two compounds are within 0.2 log units of each other.

The compound `Cc1nonc1C(=O)N[C@H](c1cn2ncc(C(NC(=O)CCC(F)(F)F)C(F)F)cc2n1)C1CCC(F)(F)CC1` (single isomer, unassigned) [Example 515, N—((S)-(7-((S*)-2,2-Difluoro-1-(4,4,4-trifluorobutanamido)ethyl)imidazo[1,2-b]pyridazin-2-yl)(4,4-difluorocyclohexyl)methyl)-4-methyl-1,2,5-oxadiazole-3-carboxamide] gave a pIC50 of 6.85.

As to `O=C(CC1CC(F)(F)C1)NC(c1cnn2cc([C@@H](NC(=O)c3nonc3C3CC3)C3CCC(F)(F)CC3)nc2c1)C(F)F` (single isomer, unassigned) [Example 518, 4-Cyclopropyl-N—((S)-(7-((R*)-1-(2-(3,3-difluorocyclobutyl)acetamido)-2,2-difluoroethyl)imidazo[1,2-b]pyridazin-2-yl)(4,4-difluorocyclohexyl)methyl)-1,2,5-oxadiazole-3-carboxamide], the negative-log IC50 (pIC50) is 5.54.

As for `CC(C)c1oncc1C(=O)N[C@H](c1cn2ncc([C@H](NC(=O)CCC(F)(F)F)C3CC3)cc2n1)C1CCC(F)(F)CC1` [Example 482, N—[(S)-[7-[(R)-Cyclopropyl-(4,4,4-trifluorobutanamido)methyl]imidazo[1,2-b]pyridazin-2-yl]-(4,4-difluorocyclohexyl)methyl]-5-isopropyl-isoxazole-4-carboxamide], the pIC50 is 7.12.

As usually defined, the pIC50 is the negative decadic logarithm of the IC50, by convention in mol/L.
